System: Rattus norvegicus
Assay: Antinociceptive activity in icv dosed Sprague-Dawley rat assessed as latency to hind lift after 10 mins by hot plate test
Type: functional

SMILES | ED50 [nmol]
CN/C(=N/C#N)NCCCCCCc1ccc(CN(C)C)o1 | 120
CN(C)Cc1ccc(CCCCNC(=O)c2ccccc2)o1 | 203
CC(=O)NCCCCc1ccc(CN(C)C)o1 | 126
CN/C(=C/[N+](=O)[O-])NCCCCCCc1ccc(CN(C)C)o1 | 25
CN(C)Cc1ccc(CCCCCCNC(=O)Nc2ccccc2)o1 | 284
CN(C)Cc1ccc(CCCCc2ccccc2)o1 | 143
CN/C(=N/C#N)NCCCCc1ccc(CN(C)C)o1 | 159
CN(C)Cc1ccc(CCCCN)o1 | 689
CN(C)Cc1ccc(CCCCNc2ccccc2)o1 | 131
CN/C(=C/[N+](=O)[O-])NCCCCc1ccc(CN(C)C)o1 | 111
CN(C)Cc1ccc(CCCCCCNC(=O)Nc2ccc(I)cc2)o1 | >149
CN(C)Cc1ccc(CCCCNC(=O)Nc2ccc(I)cc2)o1 | >226

From ChEMBL document CHEMBL1139809, “Antinociceptive activity of furan-containing congeners of improgan and ranitidine” (2007)
